How the values were obtained:
[1] = system: UL74stop virus; test: Inhibition assay with UL74stop virus; format: cell-based, Human cytomegalovirus
Method: To further investigate this, inhibition assays were performed with the UL74stop virus (FIG. 8B). As deletion of pUL74 from the virus has a severe effect on infectivity, virions had to be 50 fold concentrated for the experiment, whereas wild type virus had to be diluted to achieve similar infection rates.
FIG. 8: pUL74 is the viral interaction partner of PDGFR-alpha-Fc. Virus preparations of strain TB40-BAC4 or TB40-BAC4UL74stop were pretreated for 2 h with PDGFR-alpha-Fc. A: HFFs were fixed after 90 min of incubation with the virus-inhibitor mixture followed by staining for the viral structural protein pUL32 (red) and for Fc (green). B: Wild type or pUL74stop virus preparations were pre-incubated for 2 h with PDGFR-alpha-Fc before infection of HFFs or HECs was allowed. Wild type or UL74stop virus preparations were diluted or concentrated respectively to obtain similar infection rates. Infection rates were determined by calculation of the number of immediate early positive nuclei over total DAPI stained nuclei per image. Out of three independent experiments one is shown.

[2] = system: HCMV strain TB40/E; test: Inhibition of infection of fibroblasts (HFFs), IE antigen immunofluorescence; format: cell-based, Human cytomegalovirus
Method: For testing the inhibitory effect of antivirals or fusion proteins on HCMV, the respective inhibitors were diluted in MEM and mixed with infectious supernatants, the mixtures were incubated for 2 h at 37° C. before addition to the cells. For fibroblast infection the virus-inhibitor mixture was incubated on the cells for about 24 h. If endothelial cells were included in the experiment, all cells were supplied with their respective maintenance media after 2 h, and further incubated for 22 h.
(§1) Infection efficiencies were determined by immunofluorescence staining for viral proteins. For fixation and permeabilization the cells were incubated with 80% acetone for 5 min. For HCMV infected cells the immediate early proteins pUL122/123 were detected with a mouse monoclonal (clone E13, Argene) and visualized using a Cy3 conjugated goat anti-mouse secondary antibody (Jackson Immuno Research). HSV infected cultures were stained 6 h post infection for ICP0 using a mouse monoclonal (clone 11060, Santa Cruz) and goat anti-mouse AF488 (life technologies). DAPI was used to locate nuclei. Infection rates were determined by counting the number of cell nuclei positive for the respective viral protein, as well as the total number of nuclei per image. For each condition three images were evaluated.
To test this, the inventors pre-incubated cell free preparations of HCMV strain TB40/E with variable concentrations of soluble PDGFR-alpha-Fc chimeras for 2 h before adding them to HFFs and HECs. After 2 h the virus was removed and replaced with the appropriate cell culture medium for an overnight incubation. Cultures were then fixed, and the fraction of infected cells was determined by indirect immunofluorescence staining of viral IE antigens.
Cell free preparations of TB40/E were pre-incubated with increasing concentrations of the various Fc chimeras for 2 h. HFFs were then incubated with the mixtures for 2 h followed by a medium exchange and an overnight incubation.

[3] = system: HCMV strains AD169, Towne, Merlin, VR1814, VHL/E, TB40/F; test: Inhibition of HFF infection by other HCMV strains; format: cell-based, Human cytomegalovirus; conditions: 250 ng/ml, HFFs
Method: as §1
Next, it was tested whether soluble PDGFR-alpha-Fc would inhibit not only strain TB40/E but also other strains of HCMV. […] After an overnight incubation, the fraction of infected cells was determined by immunofluorescence staining of viral immediate early antigen. […]

[4] = biological target: HCMV particles; test: Binding of chimeric receptors (Fc-fusion proteins) to HCMV particles; set-up: species or system Human cytomegalovirus
Method: To assess the binding of Fc-Proteins to virus particles, HFFs were seeded at a density of 40,000 cells per well on IBIDI plates 1 day prior to infection. Virus preparations were pre-incubated with Fc-fusion proteins at a final concentration of 500 ng/ml for 2 h at 37° C. The virus/Fc-protein mixtures were incubated with the cells for 1.5 h on ice. Before fixation with 80% acetone, the cells were washed once with MEM. For staining of viral particles mouse hybridoma recognizing the abundant viral protein pp150 (generously provided by W. Britt, Sanchez 2000) used.
The inventors tested this by staining of adsorbed virus particles with the Fc-fusion proteins. […] Virus particles were stained for the capsid protein pp150 and bound Fc-fusion proteins.
The inventors analyzed the mode of inhibition by PDGFR-alpha-Fc. For this, the binding of different concentrations of the fusion protein was quantified by assessing the particle intensities after staining with anti-human antibody (FIG. 5). […] (FIGS. 4 and 5).

[5] = system: HCMV; test: Neutralization of cell-free HCMV particles / inhibition of HCMV entry in cell culture; format: cell-based, Human cytomegalovirus
Method: Infectious cell free HCMV preparations (corresponding to a multiplicity of infection of 1) are pre-incubated with the substance (at variable concentrations) for 2 h at 37° C. The pre-incubated mixture of HCMV and substance is added to cell cultures of choice, including at least a culture of human primary fibroblasts and a culture of human endothelial cells. Cells are incubated with the mixture for 2 h at 37° C. The mixture of HCMV and substance is then replaced with the appropriate cell culture medium and cells are further incubated for at least 16 h at 37° C. HCMV infection of the cells is detected by immunostaining of HCMV immediate early antigens (pUL122/123) with indirect immunofluorescence. The ratio of HCMV-IE antigen-positive cells per total cells is calculated as a readout for the efficiency of viral entry.

Substance: PDGFR-alpha-Fc: recombinant Fc-fusion protein of the PDGFR-alpha extracellular domain, obtained from R&D (6765-PR-050)
- infectivity of the UL74stop virus with increasing doses [1]: did not significantly change
- inhibition of infection of HFFs at 200 ng/ml ([2]; 200 ng/ml): complete abrogation of infection
- inhibitory potential of Fc chimeras on HCMV infection of HFFs ([2]; increasing concentrations, pre-incubated 2 h): blocked infection in a dose dependent fashion
- EC50 of inhibition of infection of HFFs ([2]; virus pre-incubated 2 h): 0.01 to 0.02 µg/mL
- reduction of infection, strains other than VR1814 [3]: complete
- EC50 of binding to HCMV particles ([4]; particle intensities after anti-human antibody staining): 0.108 µg/mL
- binding of Fc-fusion protein to virus particles (anti-human antibody staining) ([4]; particles pre-incubated with Fc-fusion protein, attached to cells on ice): binds to the virus
- EC50 of binding to and neutralizing cell-free HCMV particles [5]: 0.01 to 0.05 µg/mL
- attachment to and fusion with cells of treated particles [5]: reduced attachment to and reduced fusion with cells
- effect when applied post-attachment [5]: effective
